Reference: ChEMBL document CHEMBL3044752, “Isobutyl amides--potent compounds for controlling Diatraea saccharalis” (2009)

System: Diatraea saccharalis
Test: Insecticidal activity against fourth-instar Diatraea saccharalis assessed as larval mortality measured per insect after 24 hr exposure
Assay type: functional

## CC(C)CNC(=O)/C=C/CCc1ccc2c(c1)OCO2 [4,5-DIHYDROPIPERLONGUMININE]
  LD50: 92.83 µg
  LD90: 176.5 µg

## CCCCC/C=C/C=C/C(=O)NCC(C)C [PELLITORIN]
  LD50: 91.19 µg
  LD90: 184.56 µg
